Assay results from patent US12162890B2 (Novartis AG, priority 2015, dated 2024).

molecular target: HEK293 cells with stable expression of the GRIN1 gene and tetracycline-inducible expression of the GRIN2B gene (NMDA receptor, NR2B) (Homo sapiens, UniProt Q13224); test: Fluo-8 Ca2+ flux assay: reversal of Ro 25-6981-mediated suppression of the Ca2+ response to co-agonist (glutamate/glycine); assay type: cell-based; details: reversal of the Ro 25-6981 suppression of the Ca2+ response to co-agonist (glutamate/glycine); further: test concentration or dose not given here
Sequence (Q13224 27-1484, other chains not shown): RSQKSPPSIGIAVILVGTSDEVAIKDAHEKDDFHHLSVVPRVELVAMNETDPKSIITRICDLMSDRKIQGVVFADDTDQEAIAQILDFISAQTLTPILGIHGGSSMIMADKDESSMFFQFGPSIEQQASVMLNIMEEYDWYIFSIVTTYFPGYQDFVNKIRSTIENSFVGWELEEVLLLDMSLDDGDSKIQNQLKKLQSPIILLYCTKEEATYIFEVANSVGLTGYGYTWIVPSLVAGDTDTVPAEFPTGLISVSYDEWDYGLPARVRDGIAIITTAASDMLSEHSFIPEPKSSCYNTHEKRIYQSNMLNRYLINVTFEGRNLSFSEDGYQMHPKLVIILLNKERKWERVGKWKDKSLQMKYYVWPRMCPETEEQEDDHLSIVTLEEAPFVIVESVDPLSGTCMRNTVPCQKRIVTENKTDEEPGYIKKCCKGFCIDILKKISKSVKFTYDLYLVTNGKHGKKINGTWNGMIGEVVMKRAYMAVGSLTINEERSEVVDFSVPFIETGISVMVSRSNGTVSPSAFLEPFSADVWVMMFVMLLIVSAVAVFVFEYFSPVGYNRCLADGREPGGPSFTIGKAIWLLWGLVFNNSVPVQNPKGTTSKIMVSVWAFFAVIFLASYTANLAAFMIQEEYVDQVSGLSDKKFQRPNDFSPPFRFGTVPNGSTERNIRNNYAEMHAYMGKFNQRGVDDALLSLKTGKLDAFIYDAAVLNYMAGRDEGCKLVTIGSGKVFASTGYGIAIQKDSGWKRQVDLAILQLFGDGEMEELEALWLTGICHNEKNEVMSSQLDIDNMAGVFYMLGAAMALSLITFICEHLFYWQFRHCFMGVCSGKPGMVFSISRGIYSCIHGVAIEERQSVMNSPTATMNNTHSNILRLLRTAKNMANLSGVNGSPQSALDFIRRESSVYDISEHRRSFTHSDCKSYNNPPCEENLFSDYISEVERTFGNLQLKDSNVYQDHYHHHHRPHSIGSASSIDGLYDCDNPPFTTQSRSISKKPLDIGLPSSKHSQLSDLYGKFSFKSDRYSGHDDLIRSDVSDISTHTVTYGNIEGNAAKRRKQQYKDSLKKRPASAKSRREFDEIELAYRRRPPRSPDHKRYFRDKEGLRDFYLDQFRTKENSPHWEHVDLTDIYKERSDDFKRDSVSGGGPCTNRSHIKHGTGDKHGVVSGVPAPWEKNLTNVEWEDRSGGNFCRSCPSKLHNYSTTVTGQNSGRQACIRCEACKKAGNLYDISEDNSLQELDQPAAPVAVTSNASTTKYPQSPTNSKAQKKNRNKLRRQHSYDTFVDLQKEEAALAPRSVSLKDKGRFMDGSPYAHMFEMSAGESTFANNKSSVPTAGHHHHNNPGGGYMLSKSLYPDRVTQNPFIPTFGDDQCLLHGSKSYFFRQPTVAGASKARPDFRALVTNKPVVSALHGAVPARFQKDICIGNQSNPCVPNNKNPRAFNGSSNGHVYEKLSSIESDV

| Response Recovered (%) | SMILES |
| --- | --- |
| 23 | O=C(Cn1ccc2cccc(-c3ccc(Cl)c(F)c3)c2c1=O)N1CC(F)(F)C1 [Example 305, 8-(4-chloro-3-fluorophenyl)-2-(2-(3,3-difluoroazetidin-1-yl)-2-oxoethyl)isoquinolin-1(2H)-one] |
| 130 | Cc1cc(-c2csc3ccn(CC(=O)N4CC(C)(F)C4)c(=O)c23)ccc1Cl [Example 22, 3-(4-chloro-3-methylphenyl)-5-(2-(3-fluoro-3-mehtylazetidin-1-yl)-2-oxoethyl)thieno[3,2-c]pyridin-4(5H)-one] |

| SMILES | Response Recovered (%) |
| --- | --- |
| Cc1nc(-c2ccc(F)c(Cl)c2)c2c(=O)n(CC(=O)N3CC(C)(F)C3)ccn12 [Example 426, 1-(3-chloro-4-fluorophenyl)-7-(2-(3-fluoro-3-methylazetidin-1-yl)-2-oxoethyl)-3-methylimidazo[1,5-a]pyrazin-8(7H)-one] | 30 |
